Source: ChEMBL document CHEMBL1201862, “PubChem BioAssay data set” (2004)
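Exposure lasted 48 hours, with cells grown in 96-well plates and compounds tested at five concentrations. At the GI50, growth is halved.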 Calls of active or inactive are those of the source. Cut-off read from the data, not from the text of the source: active = GI50 up to about 1.1 µM and inactive = higher.

What was measured:
Assay in all cases: inhibition of tumour cell growth, NCI panel, 48 h
HOP-92 = system: HOP-92
UACC-257 = system: UACC-257
SN12C = system: SN12C
HL-60 = system: HL-60
NCI-H23 = system: NCI-H23
786-0 = system: 786-0
OVCAR-5 = system: OVCAR-5
SNB-75 = system: SNB-75
ACHN = system: ACHN
M14 = system: M14
A498 = system: A498
IGROV-1 = system: IGROV-1
COLO 205 = system: COLO 205
RXF 393 = system: RXF 393
OVCAR-4 = system: OVCAR-4
NCI-H226 = system: NCI-H226
BT-549 = system: BT-549
SK-MEL-2 = system: SK-MEL-2
UO-31 = system: UO-31
A549 = system: A549

Measured: GI50

Cn1c(=O)c2c(nc3sc4ccccc4c(=O)n32)n(C)c1=O
inactive: HOP-92 > 100 µM | UACC-257 > 100 µM | SN12C > 100 µM | HL-60 > 100 µM | NCI-H23 > 100 µM | 786-0 > 100 µM | OVCAR-5 > 100 µM | SNB-75 68.4 µM | ACHN > 100 µM | M14 > 100 µM | A498 > 100 µM | IGROV-1 > 100 µM | COLO 205 > 100 µM | RXF 393 > 100 µM | OVCAR-4 > 100 µM | NCI-H226 > 100 µM | BT-549 > 100 µM | SK-MEL-2 > 100 µM | UO-31 > 100 µM

O=C(O)c1cc2c(cc1S(=O)(=O)O)C1C(C3C2C2(Cl)C(Cl)=C(Cl)C3(Cl)C2(Cl)Cl)C2(Cl)C(Cl)=C(Cl)C1(Cl)C2(Cl)Cl (configuration not stated)
inactive: HOP-92 29.2 µM | UACC-257 90.2 µM | SN12C 8.71 µM | HL-60 2.43 µM | NCI-H23 26.4 µM | 786-0 39.8 µM | OVCAR-5 23.3 µM | SNB-75 47.6 µM | ACHN > 100 µM | M14 37.3 µM | A498 97.1 µM | IGROV-1 50.4 µM | COLO 205 44.1 µM | RXF 393 29.2 µM | OVCAR-4 38.7 µM | NCI-H226 23.4 µM | A549 72.9 µM | BT-549 67 µM | SK-MEL-2 27 µM | UO-31 44.6 µM

OC(CCN1CCN(CCOC(c2ccccc2)c2ccccc2)CC1)c1ccc(Br)cc1 (configuration not stated)
inactive: HOP-92 10.7 µM | UACC-257 3.47 µM | SN12C 11.8 µM | HL-60 10.1 µM | NCI-H23 14 µM | 786-0 10.7 µM | OVCAR-5 14.9 µM | SNB-75 12.8 µM | ACHN 10.8 µM | M14 3.27 µM | A498 3.72 µM | IGROV-1 10.9 µM | COLO 205 1.71 µM | RXF 393 9.38 µM | OVCAR-4 12.6 µM | NCI-H226 15 µM | A549 14.9 µM | BT-549 13.3 µM | SK-MEL-2 12.3 µM | UO-31 2.38 µM

CC(C)C(=O)/C=C/c1ccc(Cl)cc1Cl
inactive: HOP-92 16.8 µM | UACC-257 13.3 µM | SN12C 10.7 µM | HL-60 7.05 µM | NCI-H23 13.7 µM | 786-0 14.2 µM | OVCAR-5 16.9 µM | SNB-75 14.4 µM | ACHN 16.2 µM | M14 8.28 µM | A498 17.9 µM | IGROV-1 14.8 µM | COLO 205 18.5 µM | RXF 393 8.79 µM | OVCAR-4 6.75 µM | NCI-H226 13.2 µM | A549 14.8 µM | BT-549 4.41 µM | SK-MEL-2 14.2 µM | UO-31 11.4 µM

COc1cc2c3cc1Oc1c(OC)c(OC)cc4c1C(Cc1ccc(O)c(c1)-c1cc(ccc1OC)CC3N(C)CC2)N(C)CC4 (configuration not stated)
inactive: HOP-92 20.2 µM | UACC-257 21 µM | SN12C 15.6 µM | HL-60 2.66 µM | NCI-H23 21.4 µM | 786-0 29 µM | OVCAR-5 44.8 µM | SNB-75 18.7 µM | ACHN 15.8 µM | M14 3.18 µM | A498 23.2 µM | IGROV-1 22.1 µM | COLO 205 25.1 µM | RXF 393 1.96 µM | OVCAR-4 29.4 µM | NCI-H226 40.6 µM | A549 24.5 µM | BT-549 19.7 µM | SK-MEL-2 19.5 µM | UO-31 13.9 µM

COC(=O)C1=C(C(=O)Nc2cccnc2Cl)N(c2ccc(OC)cc2[N+](=O)[O-])C(c2ccc(C)cc2)=CC1c1ccc(OC)cc1OC (configuration not stated)
inactive: HOP-92 31.1 µM | UACC-257 25.8 µM | SN12C 15.4 µM | HL-60 4.61 µM | NCI-H23 22.1 µM | 786-0 12 µM | OVCAR-5 29 µM | SNB-75 14.2 µM | ACHN 19.1 µM | M14 13.7 µM | A498 16.7 µM | IGROV-1 5.94 µM | COLO 205 15.5 µM | RXF 393 3.13 µM | OVCAR-4 33.6 µM | NCI-H226 12.9 µM | A549 6.3 µM | BT-549 8.85 µM | SK-MEL-2 17.9 µM | UO-31 12.4 µM

CCCCCCCCCCCCCCCCCCNc1ccn(C2OC(COP(=O)(O)OCC3OC(n4cc(F)c(NCCCCCCCCCCCCCCCCCC)nc4=O)CC3O)C(O)C2O)c(=O)n1 (configuration not stated)
inactive: HOP-92 19.3 µM | UACC-257 > 100 µM | SN12C > 100 µM | HL-60 > 100 µM | NCI-H23 > 100 µM | 786-0 > 100 µM | OVCAR-5 > 100 µM | SNB-75 > 100 µM | ACHN > 100 µM | M14 > 100 µM | A498 25.8 µM | IGROV-1 > 100 µM | COLO 205 > 100 µM | RXF 393 > 100 µM | OVCAR-4 > 100 µM | NCI-H226 > 100 µM | A549 82.8 µM | BT-549 > 100 µM | SK-MEL-2 > 100 µM | UO-31 > 100 µM

CCOC(=O)CCC(NC(=O)OCc1ccccc1)C(=O)NC(CCC(=O)OCC)C(=O)NC(CCC(=O)OCC)C(=O)NNC(=O)OC(C)(C)C (configuration not stated)
inactive: HOP-92 > 100 µM | UACC-257 > 100 µM | SN12C > 100 µM | HL-60 > 100 µM | NCI-H23 > 100 µM | 786-0 > 100 µM | OVCAR-5 > 100 µM | SNB-75 > 100 µM | ACHN > 100 µM | M14 > 100 µM | A498 > 100 µM | IGROV-1 > 100 µM | COLO 205 > 100 µM | RXF 393 > 100 µM | NCI-H226 > 100 µM | A549 > 100 µM | BT-549 > 100 µM | SK-MEL-2 > 100 µM | UO-31 > 100 µM

CCNC(=O)/C(=C/c1ccc(OC)cc1)c1cc(OC)c(OC)c(OC)c1
inactive: HOP-92 28.3 µM | UACC-257 13.5 µM | SN12C 20.7 µM | HL-60 2.96 µM | NCI-H23 13 µM | 786-0 8.85 µM | OVCAR-5 63.8 µM | SNB-75 4.97 µM | ACHN 32.8 µM | M14 9.29 µM | A498 14.9 µM | IGROV-1 19.7 µM | COLO 205 5.11 µM | RXF 393 1.95 µM | OVCAR-4 68.2 µM | NCI-H226 40.7 µM | A549 7.62 µM | BT-549 14.4 µM | SK-MEL-2 7.57 µM | UO-31 20.1 µM

COc1ccc(/C=C2\C(=O)N(C3OC(COC(C)=O)C(OC(C)=O)C(OC(C)=O)C3OC(C)=O)c3ccccc3N=C2N)cc1 (configuration not stated)
inactive: HOP-92 71.4 µM | UACC-257 24.5 µM | SN12C 36.9 µM | HL-60 18.2 µM | NCI-H23 20 µM | 786-0 17.5 µM | OVCAR-5 33.9 µM | SNB-75 23.2 µM | ACHN 38.5 µM | M14 20.7 µM | A498 28.2 µM | IGROV-1 27.3 µM | COLO 205 15.6 µM | RXF 393 21.8 µM | OVCAR-4 33.5 µM | A549 29.2 µM | BT-549 23.9 µM | SK-MEL-2 23.1 µM | UO-31 32.4 µM
